Laboratory results from the NIST ThermoML archive (doi:10.1021/je300670n).

Columns and labels:
[1] = xn = mol fraction of the nth substance listed; conditions: 101 kPa, Liquid, Vibrating tube method
[2] = excess molar enthalpy (molar enthalpy of mixing); xn = mol fraction of the nth substance listed; conditions: 298.15 K, 101 kPa, Liquid, Flow calorimetry
[3] = refractive index (Na D-line) (dimensionless); conditions: 101.33 kPa, Liquid, Standard Abbe refractometry
[4] = Liquid; for mass density: 298.15 K, 101.33 kPa, Vibrating tube method; for vapor or sublimation pressure: Ebulliometric method (Recirculating still)

CCOC(C)(C)CC [1,1-dimethylpropyl ethyl ether] + CCC(C)O
[1]
Conditions	mass density [kg/m3]
297.67 K, x1 = 0.7012	770.2
297.67 K, x1 = 0.8001	766.9
297.68 K, x1 = 0.5005	777.9
297.68 K, x1 = 0.6008	774
297.68 K, x1 = 0.899	763.8
297.69 K, x1 = 0.1011	796.8
297.69 K, x1 = 0.2007	791.6
297.69 K, x1 = 0.3008	786.6
297.69 K, x1 = 0.4013	782

[2]
Conditions	excess molar enthalpy [kJ/mol]
x1 = 0.1011	0.271
x1 = 0.2007	0.516
x1 = 0.3008	0.719
x1 = 0.4013	0.868
x1 = 0.5005	0.958
x1 = 0.6008	0.986
x1 = 0.7012	0.945
x1 = 0.8001	0.819
x1 = 0.899	0.557

CCOC(C)(C)CC [1,1-dimethylpropyl ethyl ether]
Conditions	refractive index	vapor or sublimation pressure [kPa]
[3], 293.15 K	1.39112	–
[3], 298.15 K	1.38858	–
[4], 324.31 K	–	17.7
[4], 331.83 K	–	24
[4], 343.83 K	–	37.6
[4], 345.82 K	–	40.3
[4], 349.21 K	–	45.4
[4], 351.71 K	–	49.5
[4], 355.12 K	–	55.5
[4], 357.39 K	–	59.9
[4], 358.01 K	–	61
[4], 358.09 K	–	61.3
[4], 359.96 K	–	65.1
[4], 362.13 K	–	69.7
[4], 364.42 K	–	74.9
[4], 366.44 K	–	79.6
[4], 367.36 K	–	81.8
[4], 368.16 K	–	83.8
[4], 373.7 K	–	98.9
[4], 374.41 K	–	101

Conditions	mass density [kg/m3]
[4]	760.52

CCC(C)O (configuration not stated) [butan-2-ol]
Conditions	refractive index	vapor or sublimation pressure [kPa]
[3], 298.15 K	1.3951	–
[4], 330.11 K	–	15.7
[4], 337.99 K	–	23.3
[4], 345.15 K	–	32.7
[4], 354.49 K	–	49.4
[4], 357.15 K	–	55.3
[4], 358.16 K	–	57.3
[4], 358.98 K	–	59.6
[4], 362.88 K	–	69.9
[4], 365.08 K	–	76.3
[4], 366.13 K	–	79.5
[4], 367.13 K	–	82.9
[4], 371.51 K	–	98.3
[4], 372.43 K	–	100.6

Conditions	mass density [kg/m3]
[4]	802.71

CCCCO [butan-1-ol]
Conditions	refractive index	vapor or sublimation pressure [kPa]
[3], 298.15 K	1.3972	–
[4], 345.91 K	–	15.6
[4], 358.05 K	–	27.4
[4], 359.46 K	–	29.4
[4], 366.26 K	–	39.3
[4], 369.57 K	–	45.1
[4], 372.02 K	–	49.8
[4], 374.43 K	–	54.9
[4], 376.72 K	–	60.1
[4], 378.46 K	–	64.2
[4], 380.74 K	–	70.2
[4], 382.55 K	–	75.1
[4], 384.3 K	–	80.1
[4], 385.78 K	–	84.6
[4], 390.41 K	–	100

Conditions	mass density [kg/m3]
[4]	805.97

CCOC(C)(C)CC [1,1-dimethylpropyl ethyl ether] + CCC(C)(C)O
[1]
Conditions	mass density [kg/m3]
297.7 K, x1 = 0.1005	798.8
297.71 K, x1 = 0.2006	793.2
297.71 K, x1 = 0.3013	788.2
297.71 K, x1 = 0.4018	783.4
297.71 K, x1 = 0.5013	778.9
297.71 K, x1 = 0.601	774.7
297.71 K, x1 = 0.7003	770.9
297.71 K, x1 = 0.8011	767.1
297.72 K, x1 = 0.9003	763.7

[2]
Conditions	excess molar enthalpy [kJ/mol]
x1 = 0.1005	0.236
x1 = 0.2006	0.448
x1 = 0.3013	0.632
x1 = 0.4018	0.781
x1 = 0.5013	0.894
x1 = 0.601	0.961
x1 = 0.7003	0.973
x1 = 0.8011	0.9
x1 = 0.9003	0.664

CCC(C)(C)O [2-methylbutan-2-ol]
Conditions	refractive index	vapor or sublimation pressure [kPa]
[3], 298.15 K	1.40248	–
[4], 334.98 K	–	18.8
[4], 344.45 K	–	29.4
[4], 351.18 K	–	39.5
[4], 354.1 K	–	44.7
[4], 356.81 K	–	50.1
[4], 358.12 K	–	52.8
[4], 359.14 K	–	55
[4], 361.21 K	–	59.7
[4], 363.43 K	–	65.2
[4], 365.23 K	–	69.8
[4], 367.1 K	–	75
[4], 368.88 K	–	80.1
[4], 371.04 K	–	86.7
[4], 375.78 K	–	102.7

Conditions	mass density [kg/m3]
[4]	805.29

CCOC(C)(C)CC [1,1-dimethylpropyl ethyl ether] + CCCCO
mass density [kg/m3], [1]
Conditions	x1 = 0.101	x1 = 0.2005	x1 = 0.3022	x1 = 0.401	x1 = 0.5023	x1 = 0.6005	x1 = 0.7009	x1 = 0.7999	x1 = 0.902
297.7 K	801	796.1	–	786.6	782	–	–	–	764.8
297.71 K	–	–	791.1	–	–	777.5	773.3	769.2	–

[2]
Conditions	excess molar enthalpy [kJ/mol]
x1 = 0.101	0.119
x1 = 0.2005	0.251
x1 = 0.3022	0.379
x1 = 0.401	0.485
x1 = 0.5023	0.567
x1 = 0.6005	0.613
x1 = 0.7009	0.616
x1 = 0.7999	0.556
x1 = 0.902	0.382
